This experiment concerns TYR. As to the kind of experiment: Assessment of gene modulation in normal human epidermal melanocytes (RT-qPCR, PCR array mQPA H-Melanocyte-64). The class given is cell-based. The following applies: NHEM cells, 72 hours treatment. The method, then:
Normal human epidermal melanocytes were cultivated for 24 hours. Culture medium was then removed and replaced by fresh medium containing the active ingredient to be evaluated or exempt of it (control). Cells were cultivated for additional 72 hours. All experimental conditions were performed in triplicate. At the end of the cultivation, the cells were harvested and washed with phosphate buffered saline (PBS) solution and immediately frozen at -80 °C. The expression of selected markers was analyzed using RT-qPCR method on mRNA extracted from cells layer for each treatment condition. The differential expression analysis was performed by PCR arrays of the screening format "mQPA H-Melanocyte-64", which focuses on 64 genes selected for their importance in pigmentation and melanocyte biology. Total RNA was extracted from each sample using TRI-Reagent®. The amount and quality of the RNA was evaluated using a lab-on-a-chip Bioanalyzer (Agilent technologies). Potential contaminants traces of DNA were removed […] The incorporation of fluorescence in amplified DNA was measured continuously during the PCR cycles. […] The value selected for RE calculations is the "output point" (Ct) of the fluorescence curve. For a given marker, the highest is the cycle number; the lowest, is the mRNA quantity. The RE value is expressed in arbitrary units (AU) according to the equation: (((1)/(2)))^NC x 10^6 [formula] Where NC is the number of cycles.
For orientation: In qPCR the cycle at which signal appears reflects the starting amount.

Where [1] appears, read: resveratrol 5 µg/ml, sodium-ascorbyl-phosphate 1 mg/ml, combination 5 µg/ml + 1 mg/ml, read-out: TYR (expression ratio compared to control of the gene TYR).
The mark [2] stands for this setting: resveratrol 5 micrograms/ml, sodium-ascorbyl-phosphate 1mg/ml, alone or combined, positive = up-regulation, negative = down-regulation, read-out: up-regulation / down-regulation of TYR when compared to untreated cells.

Structures are written as SMILES. Like-named read-outs stand apart in the source and are kept apart here.

Results on two compounds are retold here after patent EP2522335A1, “Use of resveratrol and sodium-ascorbyl-phophate” (DSM IP Assets B.V., priority 2011, dated 2012).

As to `Oc1ccc(C=Cc2cc(O)cc(O)c2)cc1` [Resveratrol, 3,4',5 trihydroxystilbene], the activation at 5 µg/mL by setting is: under setting [1], 25%; under setting [2], 25%.
Regarding `O=C1O[C@H]([C@@H](O)CO)C(O)=C1OP(=O)(O)O` [Sodium-ascorbyl-phosphate], the activation at 1000 µg/mL under setting [1] came out at 30% and the activation at 1000 µg/mL under setting [2] came out at 30%.
